The structures appear in SMILES notation. Read-outs that look alike come from different tables or passages of the source.

Common to all, as to experiment: cell-based
For assay [1], the target named is T1, CAT1 (cationic amino acid transporter 1, CAT1/SLC7A1) (Homo sapiens, UniProt P30825).
T1 construct: full-length human transporter stably transfected in HEK cells (HEK-CAT1); net uptake against HEK-VC vector control cells
The arrangement: species or system HEK-CAT1 (HEK293 stably transfected); Inhibition of net CAT1-mediated [3H]-ADMA (1 uM) uptake, 2.5 min, scintillation counting, vector control subtracted. The note with it: HEK293, ADMA 1 uM as substrate; for inhibition at 20 µM: read-out: % Inhibition of ADMA uptake at 20 µM; for inhibition at 200 µM: read-out: % Inhibition of ADMA uptake at 200 µM. The procedure:
(§1) Uptake and inhibition assays using HEK-CAT1 and HEK-VC cells and L-arginine, L-homoarginine, and ADMA as substrates were performed using the protocol described (Strobel et al. [2012]; Chafai et al. [2017]). Briefly, after incubation, the supernatant was replaced with transport buffer containing [^3H]- L-arginine for 5 min and 2.5 min for medium containing [^3H]-L-homoarginine or [^3H]-ADMA with or without the test compound. The reference drugs were screened at concentrations of 20 µM (Figs. 1A, 2A, and 3A) and 200 µM (Figs. 1B, 2B, and 3B). […] The net uptake was determined by subtracting the total amount taken up by control cells from the amount taken up by CAT1-expressing cells, which was expressed as a percentage of the amount taken up by the control. To determine the inhibitory effects of the drugs on CAT1-mediated transport of L-arginine, L-homoarginine, or ADMA, the control was measured in the absence of the potential inhibitor. The value for the percent inhibition was calculated as: Inhibition (%) = 100 – (V/V0 ^* 100), where V and V0 are the net uptake rates (uptake into HEK-CAT1 cells—uptake into HEK-VC cells) with and without test drugs, respectively. […] Each bar represents the effect of one compound on CAT1-mediated ADMA (1 μM) uptake as percent inhibition. Data were obtained from at least two independent experiments performed in triplicate (n = 6–9) and each test data from the independent experiment were normalized to the respective control data to get the value of percent inhibition. Negative inhibition values indicate stimulated CAT1-mediated uptake. Data were analyzed using one-way ANOVA and Dunnett’s multiple comparison test with p < 0.05. Bars showing a statistically significant inhibition or transport stimulation are shaded in black

Assay [2] has as its target T1, CAT1 (cationic amino acid transporter 1, CAT1/SLC7A1). On the set-up: species or system HEK-CAT1 (HEK293 stably transfected); Inhibition of net CAT1-mediated [3H]-L-homoarginine (1 uM) uptake, 2.5 min, scintillation counting, vector control subtracted. The note with it: HEK293, L-homoarginine 1 uM as substrate; for inhibition at 20 µM: read-out: % Inhibition of L-homoarginine uptake at 20 µM; for inhibition at 200 µM: read-out: % Inhibition of L-homoarginine uptake at 200 µM. The procedure: as §1, with “CAT1-mediated L-homoarginine” for “CAT1-mediated ADMA”

Assay [3] has the same target. The arrangement: species or system HEK-CAT1 (HEK293 stably transfected); Inhibition of net CAT1-mediated [3H]-L-arginine (100 uM) uptake, 5 min, scintillation counting, vector control subtracted. The note with it: HEK293, L-arginine 100 uM as substrate; for inhibition at 20 µM: read-out: % Inhibition of L-arginine uptake at 20 µM; for inhibition at 200 µM: read-out: % Inhibition of L-arginine uptake at 200 µM. The procedure: as §1, with “L-arginine (100” for “ADMA (1”

T1 sequence (P30825 whole entry): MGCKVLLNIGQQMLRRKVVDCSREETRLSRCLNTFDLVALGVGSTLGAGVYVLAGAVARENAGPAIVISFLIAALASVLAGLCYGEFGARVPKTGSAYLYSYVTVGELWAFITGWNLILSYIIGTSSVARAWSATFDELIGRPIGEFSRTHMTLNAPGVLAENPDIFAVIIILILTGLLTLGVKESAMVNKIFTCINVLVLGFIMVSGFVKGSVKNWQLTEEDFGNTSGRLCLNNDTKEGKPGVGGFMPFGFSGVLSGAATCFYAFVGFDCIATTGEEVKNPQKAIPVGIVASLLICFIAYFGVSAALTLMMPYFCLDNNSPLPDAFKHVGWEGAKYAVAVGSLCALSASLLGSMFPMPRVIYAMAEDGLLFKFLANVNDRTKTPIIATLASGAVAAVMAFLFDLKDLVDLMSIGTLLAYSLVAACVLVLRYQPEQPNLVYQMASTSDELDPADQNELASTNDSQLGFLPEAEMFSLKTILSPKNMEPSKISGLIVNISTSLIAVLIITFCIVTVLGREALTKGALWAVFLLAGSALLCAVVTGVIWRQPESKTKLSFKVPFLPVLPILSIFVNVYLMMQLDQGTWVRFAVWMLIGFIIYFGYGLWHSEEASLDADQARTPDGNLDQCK

Turning to `CNC(=C[N+](=O)[O-])NCCSCc1ccc(CN(C)C)o1` [Ranitidine], the results for the inhibition at 20 µM in assay [1], in assay [2] and in assay [3] were -0.5 ± 5.8%, -4 ± 0.4% and 7.8 ± 1.8%, respectively. In addition, the inhibition at 200 µM in assay [1] is 6.1 ± 3.4%; in assay [2], 6.8 ± 0.6%; in assay [3], 2.9 ± 3.9%.
Take `CC(=O)Nc1nnc(S(N)(=O)=O)s1` [Acetazolamide]: the inhibition at 20 µM is -1.5 ± 0.9% in assay [1], -10.9 ± 11.9% in assay [2] and -12.8 ± 12.9% in assay [3]. Also, the inhibition at 200 µM in assay [1] is 9.7 ± 1.9%; in assay [2], 8.8 ± 2.1%; in assay [3], 8.9 ± 3.9%.
Consider `CC(C)Cc1ccc(C(C)C(=O)O)cc1` (stereo not drawn) [Ibuprofen], for which the inhibition at 20 µM in assay [1] was -20.2 ± 5.9%; in assay [2], -7.5 ± 2.1%; in assay [3] it was -5.1 ± 3.6%. Moreover, the figures for the inhibition at 200 µM in assay [1], in assay [2] and in assay [3] were -44.8 ± 7.4%, -26.1 ± 0.6% and -33.7 ± 1.4%, respectively.
As to `Cc1ccc(-c2ncc(Cl)cc2-c2ccc(S(C)(=O)=O)cc2)cn1` [Etorixocib], the figures for the inhibition at 20 µM in assay [1], in assay [2] and in assay [3] were -17.2 ± 13.5%, -5.4 ± 2.1% and 0.7 ± 3.8%, respectively. In addition, the results for the inhibition at 200 µM in assay [1], in assay [2] and in assay [3] were -22.8 ± 2.2%, 31.8 ± 4.3% and -20.7 ± 2.9%, respectively.
For `O=C(O)c1cc(-c2ccc(F)cc2F)ccc1O` [Diflunisal], the inhibition at 20 µM in assay [1] was -42.4 ± 4.5%; in assay [2], 27.9 ± 1%; in assay [3] it was 26.6 ± 0.9%. The inhibition at 200 µM in assay [1] is 10 ± 2.1%; in assay [2], -20 ± 0.5%; in assay [3] it was -20.5 ± 3.3%.
`CN1CCOC(c2ccccc2)c2ccccc2C1` (stereo not drawn) [Nefopam]: the inhibition at 20 µM in assay [1] was -3.2 ± 0.4%; in assay [2], -8.3 ± 1.6%; in assay [3], -17.2 ± 10.5%. Also, the inhibition at 200 µM in assay [1] was 32.6 ± 3.7%; in assay [2], -11.6 ± 3.2%; in assay [3], -13.9 ± 5.1%.
On to `CCCCc1nc(Cl)c(CO)n1Cc1ccc(-c2ccccc2-c2nnn[nH]2)cc1` [Losartan], for which the inhibition at 20 µM in assay [1] stood at 7 ± 3.8%; in assay [2], 11 ± 0.5%; in assay [3] it was 13.5 ± 1.7%. Further, the inhibition at 200 µM was 12.9 ± 4.1% in assay [1], -27.1 ± 2% in assay [2] and -34.8 ± 1.4% in assay [3].
Regarding `C[C@]12CCC(=O)C=C1CC[C@@H]1[C@@H]2[C@@H](O)C[C@@]2(C)[C@H]1CC[C@]2(O)C(=O)CO` [Hydrocortisone], the inhibition at 20 µM was -0.1 ± 2.8% in assay [1], 13.9 ± 9.6% in assay [2] and 8.5 ± 4.8% in assay [3]. Also, the inhibition at 200 µM is -9.9 ± 2.7% in assay [1], -9.5 ± 2.6% in assay [2] and -4.3 ± 2.7% in assay [3].
Consider `CN(C)CCCN1c2ccccc2CCc2ccc(Cl)cc21` [Clomipramine], for which the inhibition at 20 µM in assay [1] is 18 ± 3.1%; in assay [2] it was -4.5 ± 0.7%; in assay [3] it was -4.1 ± 0.9%. For the same compound, the inhibition at 200 µM in assay [1] is 14 ± 1.9%; in assay [2], -12.2 ± 3.9%; in assay [3], -12.8 ± 4.8%.
Turning to `c1c[nH]cn1` [Imidazole], the figures for the inhibition at 20 µM in assay [1], in assay [2] and in assay [3] were -4.7 ± 2.1%, -3.2 ± 2% and -6.3 ± 5.9%, respectively. Moreover, the inhibition at 200 µM in assay [1] is 20.7 ± 14.1%; in assay [2], -10.8 ± 1.6%; in assay [3], -8.5 ± 1.5%.
With `C[C@H]1O[C@@H](O[C@H]2[C@@H](O)C[C@H](O[C@H]3[C@@H](O)C[C@H](O[C@H]4CC[C@@]5(C)[C@H](CC[C@@H]6[C@@H]5C[C@@H](O)[C@]5(C)[C@@H](C7=CC(=O)OC7)CC[C@]65O)C4)O[C@@H]3C)O[C@@H]2C)C[C@H](O)[C@@H]1O` [Digoxin], the values for the inhibition at 20 µM in assay [1], in assay [2] and in assay [3] were -7.4 ± 5.9%, -4.8 ± 6.8% and -4.3 ± 7.3%, respectively. Also, the inhibition at 200 µM in assay [1] is 14.4 ± 4.6%; in assay [2] it was -12.7 ± 0.8%; in assay [3], -14.9 ± 17.8%.
Take `Cc1nccn1CC1CCc2c(c3ccccc3n2C)C1=O` (stereo not drawn) [Ondansetron]: the values for the inhibition at 20 µM in assay [1], in assay [2] and in assay [3] were -0.4 ± 5.9%, -0.5 ± 5.9% and 8.8 ± 7.9%, respectively. Also, the inhibition at 200 µM in assay [1] is 10.1 ± 2.3%; in assay [2], -8.3 ± 1.6%; in assay [3] it was -5.7 ± 4.1%.
Take `NS(=O)(=O)c1cc2c(cc1Cl)NCNS2(=O)=O` [Hydrochlorothiazide]: the results for the inhibition at 20 µM in assay [1], in assay [2] and in assay [3] were 5.5 ± 2.2%, 8.5 ± 4.8% and 6 ± 3.9%, respectively. In addition, the inhibition at 200 µM is 9.9 ± 3.5% in assay [1], 7.9 ± 1.2% in assay [2] and 20.7 ± 14.1% in assay [3].
As for `CC(=O)S[C@@H]1CC2=CC(=O)CC[C@]2(C)[C@H]2CC[C@@]3(C)[C@@H](CC[C@@]34CCC(=O)O4)[C@H]12` [Spironolactone], the inhibition at 20 µM in assay [1] was 3.2 ± 2.3%; in assay [2] it was -3.9 ± 5.2%; in assay [3] it was -3.7 ± 5.3%. The figures for the inhibition at 200 µM in assay [1], in assay [2] and in assay [3] were -7.6 ± 2.1%, -11.5 ± 2.8% and -4.8 ± 6.6%, respectively.
On to `N=C(N)NC(=O)c1nc(Cl)c(N)nc1N` [Amiloride], for which the values for the inhibition at 20 µM in assay [1], in assay [2] and in assay [3] were 1.5 ± 3.2%, 1.5 ± 3.2% and -0.1 ± 9.7%, respectively. Besides, the figures for the inhibition at 200 µM in assay [1], in assay [2] and in assay [3] were -17.1 ± 2.3%, 12.6 ± 2.6% and 10.9 ± 3.9%, respectively.

Source of the values: article PMC9217908, “Screening of commonly prescribed drugs for effects on the CAT1-mediated transport of L-arginine and arginine derivatives” (Amino Acids, 2022).
